pIC50: −log10 of the molar value. Converted amounts (≈) assume the structure as drawn.
Experiments:
MDA-MB-231 [1] = test: Antiproliferative activity against human MDA-MB-231 cells by SRB assay; format: functional
[2] = Antiproliferative activity against human MiaPaCa cells by SRB assay; format: functional; details: MIA PaCa-2
IMR-32 = test: Antiproliferative activity against human IMR32 cells by SRB assay; format: functional
A549 [3] = test: Antiproliferative activity against human A549 cells assessed as reduction in cell viability after 48 hrs by SRB assay; format: functional, cell-based; details: A549, 48 h
HCT-116 [4] = test: Antiproliferative activity against human HCT116 cells assessed as reduction in cell viability after 48 hrs by SRB assay; format: functional, cell-based; details: HCT-116, 48 h
MCF7 [5] = test: Antiproliferative activity against human MCF7 cells assessed as reduction in cell viability after 48 hrs by SRB assay; format: functional, cell-based; details: MCF7, 48 h
HT-29 [6] = test: Antiproliferative activity against human HT-29 cells assessed as reduction in cell viability after 48 hrs by SRB assay; format: functional, cell-based; details: HT-29, 48 h
HCT-116 [7] = test: Antiproliferative activity against human HCT116 cells assessed as reduction in cell viability after 48 hrs by MTT assay; format: functional, cell-based; details: HCT-116, 48 h
A549 [8] = test: Antiproliferative activity against human A549 cells assessed as reduction in cell viability after 48 hrs by MTT assay; format: functional, cell-based; details: A549, 48 h
HT-29 [9] = test: Antiproliferative activity against human HT-29 cells assessed as reduction in cell viability after 48 hrs by MTT assay; format: functional, cell-based; details: HT-29, 48 h
HBL-100 [10] = test: Antiproliferative activity against human HBL100 cells assessed as reduction in cell viability after 48 hrs by MTT assay; format: functional, cell-based; details: HBL-100, 48 h
MCF7 [11] = test: Antiproliferative activity against human MCF7 cells assessed as reduction in cell viability after 48 hrs by MTT assay; format: functional, cell-based; details: MCF7, 48 h
HepG2 [12] = test: Antiproliferative activity against human HepG2 cells by MTT assay; format: functional, cell-based
DU-145 [13] = test: Antiproliferative activity against human DU145 cells assessed as reduction in cell viability after 48 hrs by MTT assay; format: functional, cell-based; details: DU-145, 48 h
MCF7 [14] = test: Antiproliferative activity against human MCF7 cells assessed as reduction in cell viability after 72 hrs by MTT assay; format: functional, cell-based; details: MCF7, 72 h
T47D [15] = test: Antiproliferative activity against human T47D cells assessed as reduction in cell viability after 72 hrs by MTT assay; format: functional, cell-based
DU-145 [16] = test: Antiproliferative activity against human DU145 cells by SRB assay; format: functional, cell-based
HeLa [17] = test: Antiproliferative activity against human HeLa cells by SRB assay; format: functional, cell-based
HepG2 [18] = test: Antiproliferative activity against human HepG2 cells by SRB assay; format: functional, cell-based
A549 [19] = test: Antiproliferative activity against human A549 cells by SRB assay; format: functional, cell-based
SK-OV-3 = test: Antiproliferative activity against human SKOV3 cells by SRB assay; format: functional, cell-based
KB = test: Antiproliferative activity against human KB cells by MTT assay; format: functional, cell-based
HL-60 = test: Antiproliferative activity against human HL60 cells assessed as reduction in cell viability after 48 hrs by MTT assay; format: functional, cell-based; details: HL-60, 48 h
SW480 = test: Antiproliferative activity against human SW480 cells assessed as reduction in cell viability after 48 hrs by MTT assay; format: functional, cell-based; details: SW480, 48 h
[20] = Antiproliferative activity against human SMCC7721 cells assessed as reduction in cell viability after 48 hrs by MTT assay; format: functional, cell-based
MCF7 [21] = test: Antiproliferative activity against human MCF7 cells by SRB assay; format: functional, cell-based
MCF7-DOX = test: Antiproliferative activity against human MCF7/Dox cells by SRB assay; format: functional, cell-based
MCF7 [22] = test: cells; format: functional, cell-based; details: Homo sapiens
Description: Antiproliferative activity against human MCF7 cells by MTT assay

PC-3 [23] = test: Antiproliferative activity against human PC3 cells assessed as reduction in cell viability after 24 hrs by MTT assay; format: functional, cell-based; details: PC-3, 24 h
MDA-MB-231 [24] = test: Antiproliferative activity against human MDA-MB-231 cells assessed as reduction in cell viability after 24 hrs by MTT assay; format: functional, cell-based; details: MDA-MB-231, 24 h
A549 [25] = test: cells; format: functional, cell-based; details: Homo sapiens
Description: Antiproliferative activity against human A549 cells by MTT assay

HBL-100 [26] = test: Antiproliferative activity against human HBL100 cells by MTT assay; format: functional, cell-based
HeLa [27] = test: Antiproliferative activity against human HeLa cells by MTT assay; format: functional, cell-based
SW1573 = test: Antiproliferative activity against human SW1573 cells by MTT assay; format: functional, cell-based
T47D [28] = test: Antiproliferative activity against human T47D cells by MTT assay; format: functional, cell-based
WiDr = test: Antiproliferative activity against human WiDr cells by MTT assay; format: functional, cell-based
hTERT-BJ = test: Cytotoxicity activity against human hTERT-BJ cells by MTT assay; format: cell-based
HeLa [29] = test: Antiproliferative activity against human HeLa cells assessed as reduction in cell viability after 24 hrs by MTT assay; format: functional, cell-based
HepG2 [30] = test: Antiproliferative activity against human HepG2 cells assessed as reduction in cell viability after 24 hrs by MTT assay; format: functional, cell-based; details: HepG2, 24 h
PC-3 [31] = test: cells; format: functional, cell-based; details: Homo sapiens, PC-3, 48 h
Description: Antiproliferative activity against human PC3 cells assessed as reduction in cell viability after 48 hrs by MTT assay

U-87 MG = test: Antiproliferative activity against human U87MG cells assessed as reduction in cell viability after 48 hrs by MTT assay; format: functional, cell-based, U-87MG ATCC
MGC-803 = test: Antiproliferative activity against human MGC803 cells by MTT assay; format: functional, cell-based
SK-N-SH = test: Antiproliferative activity against human SK-N-SH cells by MTT assay; format: functional, cell-based
A549 [32] = test: Antitumour activity against human A549 cells xenografted in Kunming mice assessed as tumour growth inhibition at 20 mg/kg, iv bid administered and measured after week relative to control; format: functional; details: Mus musculus, read-out: TGI
MDA-MB-231 [33] = test: Antiproliferative activity against human MDA-MB-231 cells assessed as reduction in cell viability after 72 hrs by MTT assay; format: functional, cell-based; details: MDA-MB-231, 72 h, read-out: IC50
ECa-109 cell line = test: Antiproliferative activity against human EC109 cells by MTT assay; format: functional, cell-based
[34] = Antiproliferative activity against human HCG27 cells by MTT assay; format: functional, cell-based
MKN-28 = test: Antiproliferative activity against human MKN28 cells by MTT assay; format: functional, cell-based
MKN-45 = test: Antiproliferative activity against human MKN45 cells by MTT assay; format: functional, cell-based
MDA-MB-468 = test: Antiproliferative activity against human MDA-MB-468 cells assessed as reduction in cell viability after 72 hrs by MTT assay; format: functional, cell-based; details: MDA-MB-468, 72 h
HGC-27 = test: Antiproliferative activity against human HGC27 cells assessed as reduction in cell viability after 48 hrs by MTT assay; format: functional, cell-based; details: HGC-27, 48 h
MDA-MB-231 [35] = test: Antiproliferative activity against human MDA-MB-231 cells by MTT assay; format: functional, cell-based
HEK293 = test: Cytotoxicity against HEK293 cells by MTT assay; format: cell-based; details: Homo sapiens
DU-145 [36] = test: Antiproliferative activity against human DU145 cells by MTT assay; format: functional, cell-based

N#Cc1ccccc1Cn1cc(CNc2ccc3oc(-c4ccccc4)cc(=O)c3c2)nn1
GI50 (MDA-MB-231 [1]): 0.11 to 1 µM | GI50 [2]: 0.11 to 1 µM | GI50 (IMR-32): 0.11 to 1 µM

CC[C@@]1(O)C(=O)OCc2c1cc1n(c2=O)Cc2cc3ccccc3nc2-1 [CAMPTOTHECIN]
pIC50 (A549 [3]): 6.10 to 7.52 | pIC50 (HCT-116 [4]): 6.10 to 7.52 | pIC50 (MCF7 [5]): 6.10 to 7.52 | pIC50 (HT-29 [6]): 6.10 to 7.52

C[C@@H]1CC[C@@]2(OC1)O[C@H]1C[C@H]3[C@@H]4CC=C5C[C@@H](O)CC[C@]5(C)[C@H]4CC[C@]3(C)[C@H]1[C@@H]2C [DISOGENIN]
pIC50 (HCT-116 [7]): 4.88 to 4.97 | pIC50 (A549 [8]): 4.88 to 4.97 | pIC50 (HT-29 [9]): 4.88 to 4.97 | pIC50 (HBL-100 [10]): 4.88 to 4.97

COc1cc([C@@H]2c3cc4c(cc3[C@@H](O[C@@H]3O[C@@H]5CO[C@@H](C)O[C@H]5[C@H](O)[C@H]3O)[C@H]3COC(=O)[C@H]23)OCO4)cc(OC)c1O [ETOPOSIDE]
pIC50 (MCF7 [11]): 4.48 to 6.51 | pIC50 (HepG2 [12]): 4.80 to 4.93 | pIC50 (A549 [8]): 4.48 to 6.51 | pIC50 (DU-145 [13]): 5.01 | GI50 (MCF7 [14]): 7.5 µg/mL (≈ 12.7 µM) | GI50 (T47D [15]): 7.9 µg/mL (≈ 13.4 µM) | pIC50 (DU-145 [16]): 4.30 to 5.16 | pIC50 (HeLa [17]): 4.30 to 5.16 | pIC50 (HepG2 [18]): 4.30 to 5.16 | pIC50 (A549 [19]): 4.30 to 5.16 | pIC50 (SK-OV-3): 4.30 to 5.16 | pIC50 (KB): 4.80 to 4.93 | pIC50 (HL-60): 4.48 to 5.09 | pIC50 (SW480): 4.48 to 6.51 | pIC50 [20]: 4.48 to 6.51 | pIC50 (MCF7 [21]): 4.30 to 5.16 | pIC50 (MCF7-DOX): 4.30 to 5.16

O=c1[nH]cc(F)c(=O)[nH]1 [FLUOROURACIL]
IC50 (MCF7 [22]): 30 µg/mL | pIC50 (PC-3 [23]): 5.72 to 5.80 | pIC50 (MDA-MB-231 [24]): 5.72 to 5.80 | pIC50 (HepG2 [12]): 4.99 to 5.14 | pIC50 (A549 [8]): 5.44 to 5.62 | pIC50 (A549 [25]): 4.31 to 5.37 | pIC50 (HBL-100 [26]): 4.31 to 5.37 | pIC50 (HeLa [27]): 4.31 to 5.37 | pIC50 (SW1573): 4.31 to 5.37 | pIC50 (T47D [28]): 4.31 to 5.37 | pIC50 (WiDr): 4.31 to 5.37 | pIC50 (hTERT-BJ): 5.26 | pIC50 (HeLa [29]): 5.72 to 5.80 | pIC50 (HepG2 [30]): 5.72 to 5.80 | pIC50 (MCF7 [14]): 4.90 to 5.12 | pIC50 (HT-29 [9]): 5.44 to 5.62 | pIC50 (PC-3 [31]): 5.44 to 5.62 | pIC50 (U-87 MG): 5.44 to 5.62 | pIC50 (MGC-803): 4.84 to 5.19 | pIC50 (SK-N-SH): 4.99 to 5.14 | inhibition in vivo at 20 mg/kg (A549 [32]): 64.7% | pIC50 (MDA-MB-231 [33]): 4.90 to 5.12 | pIC50 (ECa-109 cell line): 4.84 to 5.19 | pIC50 [34]: 4.84 to 5.19 | pIC50 (MKN-28): 4.71 to 5.16 | pIC50 (MKN-45): 4.71 to 5.16 | pIC50 (MDA-MB-468): 4.90 to 5.12

COc1ccc2c(c1)[nH]c1c(C)nccc12 [HARMINE]
pIC50 (MCF7 [14]): 4.61 to 5.45 | pIC50 (HT-29 [9]): 4.61 to 5.45 | pIC50 (PC-3 [31]): 4.61 to 5.45 | pIC50 (HGC-27): 4.61 to 5.45

CC/C(=C(\c1ccccc1)c1ccc(OCCN(C)C)cc1)c1ccccc1 [TAMOXIFEN]
pIC50 (MCF7 [22]): 4.73 to 4.96 | pIC50 (MDA-MB-231 [35]): 4.95 | pIC50 (HEK293): < 4.30 | pIC50 (A549 [25]): 4.73 to 4.96 | pIC50 (HeLa [27]): 4.73 to 4.96 | pIC50 (DU-145 [36]): 4.73 to 4.96

— ChEMBL document CHEMBL4342418, “1,2,3-Triazole-containing hybrids as potential anticancer agents: Current developments, action mechanisms and structure-activity relationships” (Eur J Med Chem, 2019)
